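These data come from cells grown in 96-well plates and exposed to compound for 48 hours at five concentrations. GI50 marks 50% less growth. TGI marks complete inhibition of growth.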
How the values were obtained:
Assay in all cases: NCI-60 cell line screen, 48 h
DMS 114 small cell lung = system: DMS 114 small cell lung
HOP-18 NSCLC = system: HOP-18 NSCLC
KM20L2 colon = system: KM20L2 colon
LOX IMVI melanoma = system: LOX IMVI melanoma
LXFL 529 NSCLC = system: LXFL 529 NSCLC
M19-MEL melanoma = system: M19-MEL melanoma
SNB-19 CNS = system: SNB-19 CNS
HOP-92 NSCLC = system: HOP-92 NSCLC
MDA-MB-231 breast = system: MDA-MB-231 breast
MDA-MB-435 = system: MDA-MB-435
T-47D breast = system: T-47D breast

## CC(=O)Oc1c(C)n(CCCl)ccc1=O
DMS 114 small cell lung
  TGI: > 100 µM
HOP-18 NSCLC
  TGI: > 100 µM
KM20L2 colon
  TGI: > 100 µM
LOX IMVI melanoma
  TGI: > 100 µM
LXFL 529 NSCLC
  TGI: > 100 µM
M19-MEL melanoma
  TGI: > 100 µM
SNB-19 CNS
  TGI: > 100 µM

## O=[N+]([O-])c1ccc(Sc2ncccn2)c([N+](=O)[O-])c1
HOP-92 NSCLC
  GI50: 1150 nM
  TGI: 3.94 µM
LOX IMVI melanoma
  GI50: 4300 nM
  TGI: 15 µM
MDA-MB-231 breast
  GI50: 5.31 µM
  TGI: 17.1 µM
MDA-MB-435
  GI50: 3160 nM
  TGI: 13.3 µM
SNB-19 CNS
  GI50: 10.8 µM
  TGI: 23.1 µM
T-47D breast
  GI50: 3010 nM
  TGI: 15 µM

## COc1cc(C(=O)O)c([N+](=O)[O-])c(OC)c1OC
HOP-92 NSCLC
  TGI: > 100 µM
LOX IMVI melanoma
  TGI: > 100 µM
MDA-MB-231 breast
  TGI: > 100 µM
MDA-MB-435
  TGI: > 100 µM
SNB-19 CNS
  TGI: > 100 µM
T-47D breast
  TGI: > 100 µM

## O=[N+]([O-])c1ccc(N/N=C\c2cc(Cl)ccc2O)nc1
HOP-92 NSCLC
  GI50: 6680 nM
  TGI: > 100 µM
LOX IMVI melanoma
  GI50: 457 nM
  TGI: 8.47 µM
MDA-MB-231 breast
  GI50: 3.88 µM
  TGI: 33.1 µM
MDA-MB-435
  GI50: 1760 nM
  TGI: > 100 µM
SNB-19 CNS
  GI50: 3.41 µM
  TGI: > 100 µM
T-47D breast
  GI50: 2860 nM
  TGI: > 100 µM

## NC(N)=NC(CC(=O)O)c1ccccc1 (stereo not given)
HOP-92 NSCLC
  TGI: > 100 µM
LOX IMVI melanoma
  TGI: > 100 µM
MDA-MB-231 breast
  TGI: > 100 µM
MDA-MB-435
  TGI: > 100 µM
SNB-19 CNS
  TGI: > 100 µM
T-47D breast
  TGI: > 100 µM

## C[C@H]1[C@H](OC(=O)CCC(=O)O)O[C@@H]2O[C@]3(C)CC[C@H]4[C@H](C)CC[C@@H]1[C@@]24OO3
HOP-92 NSCLC
  GI50: 214 nM
  TGI: 2.38 µM
LOX IMVI melanoma
  GI50: 421 nM
  TGI: 4.79 µM
MDA-MB-231 breast
  GI50: 2.34 µM
  TGI: 35.4 µM
MDA-MB-435
  GI50: 335 nM
  TGI: 13.5 µM
SNB-19 CNS
  GI50: 1.62 µM
  TGI: > 100 µM
T-47D breast
  GI50: 400 nM
  TGI: 22.7 µM

## S=c1[nH]nc(COc2ccc(Cl)cc2)o1
DMS 114 small cell lung
  TGI: > 100 µM
HOP-18 NSCLC
  TGI: > 100 µM
HOP-92 NSCLC
  TGI: > 100 µM
KM20L2 colon
  TGI: > 100 µM
LXFL 529 NSCLC
  TGI: > 100 µM
M19-MEL melanoma
  TGI: > 100 µM
SNB-19 CNS
  TGI: > 100 µM

## C/C(=N\N(C)C)c1sc(-n2nc(-c3ccccc3)cc2-c2ccccc2)nc1C
DMS 114 small cell lung
  TGI: > 100 µM
HOP-18 NSCLC
  TGI: > 100 µM
HOP-92 NSCLC
  TGI: > 100 µM
KM20L2 colon
  TGI: > 100 µM
LOX IMVI melanoma
  TGI: 35.3 µM
LXFL 529 NSCLC
  TGI: > 100 µM
M19-MEL melanoma
  TGI: > 100 µM
SNB-19 CNS
  TGI: > 100 µM

— PubChem BioAssay (NCI)
